Measured values as given in patent publication US12454530B2, “Amido cyclohexane acid derivatives as LPA receptor inhibitors” (CHIESI FARMACEUTICI S.P.A., priority 2020, dated 2025).
Read-outs that look alike come from different tables or passages of the source.

Columns and labels:
[1] = target: human recombinant LPA1 expressed in CHO cells (Homo sapiens (Human), UniProt Q92633); assay: LPA1 antagonist FLIPR calcium assay in CHO-hLPA1 cells; type: cell-based
Description: The effectiveness of compounds of the present invention as LPA1 antagonists can be determined at the human recombinant LPA1 expressed in CHO cells, using a FLIPR assay in 384 well format.
CHO-hLPA1 cell lines are cultured in a humidified incubator at 5% CO2 in DMEM/F-12 (1:1) MIXTURE with 2 mM Glutamax, supplemented with 10% of Foetal Bovine Serum, 1 mM Sodium Pyruvate, 11 mM Hepes and 1× Penicillin/Streptomycin. […] Serial dilutions (1:3 or 1:4, 11 points CRC) of compounds are performed in 100% DMSO at 200× the final concentration. […] The final concentration of DMSO in the assay will be 0.5% in each well. Medium is removed by aspiration and cells are then incubated with 30 μl of a loading solution containing 5 μM of the cytoplasmic Ca2+ indicator Cal-520 AM in Assay Buffer containing 2.5 mM probenecid for 30 min at 37° C. incubator (cell loading). The loaded cell plates are transferred into the FLIPR instrument and calcium responses are monitored during the on-line addition protocols. For testing of compounds, after the cell loading, 10 μl/well of 4× antagonists' solution was added onto the cells. After 30 min pre-incubation (at 37° C.), 10 μl/well of 5× concentrated LPA EC80 was added and Ca2+ mobilization responses was followed during the on-line addition protocol. Intracellular peak fluorescence values subtracted by baseline fluorescence are exported and analysed to determine IC50 values, respectively. The calcium response is expressed as percentage of the maximal inhibition of the EC80 agonist response.
The raw data (peak height expressed as relative fluorescence units) are normalized and transformed into “percent of inhibition”. Curve fitting and pIC50 (−LogIC50) estimations are carried out using a four-parameter logistic model using XLfit Software.

BSEP = BSEP (Homo sapiens (Human), UniProt O95342); assay: BSEP inhibition: biliary clearance of Taurocolic Acid in sandwich-cultured human hepatocytes; type: in vitro ADME; conditions: 50 μM test compound, 10 μM TCA, human hepatocytes sandwich configuration; for inhibition at 10 min, 50 μM: sandwich-cultured cryopreserved human hepatocytes, probe Taurocolic Acid (TCA)
Description: BSEP inhibition was evaluated using human hepatocytes cultured between two layer of collagen (sandwich configuration). In this culture condition, hepatocytes express relevant transporters including BSEP and retain the bile canalicular structure. An inhibition of the biliary clearance of Taurocolic Acid (TCA), a known BSEP substrate, was used to assess BSEP interaction.
BSEP inhibition was evaluated using cryopreserved human hepatocytes (Plateable Cryopreserved Human Hepatocytes, BIOIVT) cultured for 5 day between two layer of collagen (sandwich configuration). In this culture condition, hepatocytes express relevant transporters including BSEP and retain the bile canalicular structure.
On day 5 of culture, hepatic cells are ready for the assay and the biliary clearance of Taurocolic Acid (TCA), a known BSEP substrate, can be estimated in presence and in absence of compound of interest.
The sample solution was prepared dissolving test compound and TCA in DMSO and then diluted in the Assay Buffer: Hank's Balance Salt Solution (HBSS+) warmed at 37° C. before use, to give the 10 μM TCA working solution with and without 50 μM of test compound. Hepatocytes were incubated for 10 minutes with these working solutions allowing TCA to be excreted into bile. At the end of incubation, the working solution was aspirated, and the content of the bile was collected through the addition of HBSS Modified without Ca2+/Mg2+(HBSS−). The presence of Ca2+ in the buffer is required to maintain the integrity of the tight junctions, the diffusional barrier between the canalicular lumen and extracellular space. Instead, incubation of cells in Ca2+-free buffer disrupts the tight junctions and opens the bile canalicular structures, allowing the bile content to be released and collect for HPLC-MS/MS analysis.
The in vitro biliary clearance of TCA incubated with and without test compounds is calculated according to the following formula:
where • Acc. Bile=(TCA amount in HBSS (−) buffer samples (pmol/mg protein)*Volume of each samples (mL))/Protein content per well (mg) • AUC=Incubation time (min)*T0 Concentration. T0 concentration is the initial TCA concentration in the medium.
The inhibition of BSEP was calculated as percentage of inhibition of TCA biliary clearance in presence of compound of interest, according to the following formula: BSEP inhibition %=100−(TCA ClBil with test compound*100)
TCA ClBil without test compound.

[2] = range of activity, CHO-hLPA1, LPA EC80, Ca2+ mobilization, read-out: LPA1 IC50

Chain of human recombinant LPA1 expressed in CHO cells (Q92633 whole entry): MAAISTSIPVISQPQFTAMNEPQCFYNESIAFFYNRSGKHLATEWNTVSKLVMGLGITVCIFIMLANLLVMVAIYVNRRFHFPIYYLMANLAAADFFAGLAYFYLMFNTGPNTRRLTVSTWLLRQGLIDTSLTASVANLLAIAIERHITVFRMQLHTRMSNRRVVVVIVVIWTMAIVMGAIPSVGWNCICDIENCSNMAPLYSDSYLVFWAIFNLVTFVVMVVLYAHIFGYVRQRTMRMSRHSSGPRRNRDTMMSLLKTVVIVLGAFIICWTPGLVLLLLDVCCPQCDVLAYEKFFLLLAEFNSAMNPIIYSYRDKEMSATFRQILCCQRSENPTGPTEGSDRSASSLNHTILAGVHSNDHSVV
Chain of BSEP (O95342 whole entry): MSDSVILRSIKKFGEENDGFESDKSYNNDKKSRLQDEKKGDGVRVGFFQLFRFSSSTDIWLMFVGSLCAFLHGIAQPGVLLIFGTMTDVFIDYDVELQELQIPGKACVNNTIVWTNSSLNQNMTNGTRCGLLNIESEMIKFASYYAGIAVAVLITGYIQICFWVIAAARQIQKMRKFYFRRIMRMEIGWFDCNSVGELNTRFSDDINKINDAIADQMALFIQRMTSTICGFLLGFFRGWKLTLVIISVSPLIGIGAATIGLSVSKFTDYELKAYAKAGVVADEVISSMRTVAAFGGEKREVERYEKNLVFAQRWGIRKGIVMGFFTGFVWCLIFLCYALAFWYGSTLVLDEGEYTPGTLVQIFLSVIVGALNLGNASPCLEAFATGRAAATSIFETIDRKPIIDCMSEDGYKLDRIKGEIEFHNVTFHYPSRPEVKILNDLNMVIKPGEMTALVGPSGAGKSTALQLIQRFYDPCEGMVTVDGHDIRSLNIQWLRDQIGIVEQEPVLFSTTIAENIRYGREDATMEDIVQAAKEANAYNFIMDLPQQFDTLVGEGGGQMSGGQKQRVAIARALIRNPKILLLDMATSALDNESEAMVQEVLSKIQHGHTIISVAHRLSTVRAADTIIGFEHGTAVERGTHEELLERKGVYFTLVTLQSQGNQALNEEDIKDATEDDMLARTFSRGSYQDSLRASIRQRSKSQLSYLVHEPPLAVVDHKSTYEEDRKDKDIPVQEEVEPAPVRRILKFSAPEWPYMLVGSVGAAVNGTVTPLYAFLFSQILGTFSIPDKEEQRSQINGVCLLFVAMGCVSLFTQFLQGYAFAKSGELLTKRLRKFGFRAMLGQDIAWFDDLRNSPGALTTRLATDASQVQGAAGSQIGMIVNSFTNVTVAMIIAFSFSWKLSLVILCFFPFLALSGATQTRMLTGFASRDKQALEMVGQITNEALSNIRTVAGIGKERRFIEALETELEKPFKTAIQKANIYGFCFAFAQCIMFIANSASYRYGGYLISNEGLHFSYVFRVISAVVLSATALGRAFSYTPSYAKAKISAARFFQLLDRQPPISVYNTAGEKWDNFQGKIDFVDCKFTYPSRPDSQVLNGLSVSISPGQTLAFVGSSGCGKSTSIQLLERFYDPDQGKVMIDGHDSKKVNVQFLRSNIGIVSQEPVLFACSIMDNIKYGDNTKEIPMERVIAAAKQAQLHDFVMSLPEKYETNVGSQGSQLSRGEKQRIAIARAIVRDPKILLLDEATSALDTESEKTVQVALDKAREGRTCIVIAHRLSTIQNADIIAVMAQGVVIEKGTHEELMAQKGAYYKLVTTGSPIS

## C[C@@H](OC(=O)Nc1c(-c2ccc(NC(=O)C3CCCCC3C(=O)O)cc2)cnn1C)c1ccccc1Cl (single isomer, unassigned) [Example 4]
[1]; [2]
  IC50: < 50 nM

## C[C@@H](OC(=O)Nc1c(-c2ccc(NC(=O)C3CCCCC3C(=O)O)cc2)cnn1C)c1ccccc1Cl (single isomer, unassigned) [Example 5]
[1]; [2]
  IC50: 250 to 600 nM

## C[C@@H](OC(=O)Nc1ccsc1-c1ccc(NC(=O)C2CCCCC2C(=O)O)cc1)c1ccccc1Cl (single isomer, unassigned) [Example 8]
[1]; [2]
  IC50: 250 to 600 nM

## C[C@@H](OC(=O)Nc1ccsc1-c1ccc(NC(=O)C2CCCCC2C(=O)O)cc1)c1ccccc1Cl (single isomer, unassigned) [Example 10]
[1]; [2]
  IC50: < 50 nM
BSEP
  BSEP Inhibition at 50 μM: ≤50%

## Cc1nc(-c2onc(C)c2NC(=O)O[C@H](C)c2ccccc2Cl)ccc1NC(=O)C1CCCCC1C(=O)O (single isomer, unassigned) [Example 14]
BSEP
  BSEP Inhibition at 50 μM: ≤50%

## Cc1noc(-c2ccc(NC(=O)[C@H]3CCCC[C@@H]3C(=O)O)cn2)c1NC(=O)OC(C)c1cccnc1F (single isomer, unassigned) [Example 18]
[1]; [2]
  IC50: 50 to 250 nM
BSEP
  inhibition at 10 min, 50 μM: ≤ 50%

## Cc1nc(-c2onc(C)c2NC(=O)OC(C)c2cccnc2F)ccc1NC(=O)[C@H]1CCCC[C@@H]1C(=O)O (single isomer, unassigned) [Example 20]
[1]; [2]
  IC50: 50 to 250 nM
BSEP
  inhibition at 10 min, 50 μM: ≤ 50%

## Cc1nc(-c2nnn(C)c2NC(=O)O[C@H](C)c2ccccc2Cl)ccc1NC(=O)[C@H]1CCCC[C@@H]1C(=O)O [Example 3, (1S,2S)-2-((6-(5-((((R)-1-(2-chlorophenyl)ethoxy)carbonyl)amino)-1-methyl-1H-1,2,3-triazol-4-yl)-2-methylpyridin-3-yl)carbamoyl)cyclohexane-1-carboxylic acid]
[1]; [2]
  IC50: < 50 nM
BSEP
  inhibition at 10 min, 50 μM: ≤ 50%

## C[C@@H](OC(=O)Nc1ccsc1-c1ccc(NC(=O)C2CCCCC2C(=O)O)cc1)c1ccccc1Cl (stereo partly drawn) [Example 6, Cis-2-((4-(3-((((R)-1-(2-chlorophenyl)ethoxy)carbonyl)amino)thiophen-2-yl)phenyl)carbamoyl)cyclohexane-1-carboxylic acid]
[1]; [2]
  IC50: < 50 nM

## Cc1nc(-c2onc(C)c2NC(=O)O[C@H](C)c2cccnc2Cl)ccc1NC(=O)[C@H]1CCCC[C@@H]1C(=O)O [Example 11, (1S,2S)-2-((6-(4-((((R)-1-(2-chloropyridin-3-yl)ethoxy)carbonyl)amino)-3-methylisoxazol-5-yl)-2-methylpyridin-3-yl)carbamoyl)cyclohexane-1-carboxylic acid]
[1]; [2]
  IC50: 50 to 250 nM
BSEP
  inhibition at 10 min, 50 μM: ≤ 50%

## Cc1nc(-c2onc(C)c2NC(=O)O[C@H](C)c2cccnc2)ccc1NC(=O)[C@H]1CCCC[C@@H]1C(=O)O [Example 15, (1S,2S)-2-((2-methyl-6-(3-methyl-4-((((R)-1-(pyridin-3-yl)ethoxy)carbonyl)amino)isoxazol-5-yl)pyridin-3-yl)carbamoyl)cyclohexane-1-carboxylic acid]
[1]; [2]
  IC50: 50 to 250 nM
BSEP
  inhibition at 10 min, 50 μM: ≤ 50%

## Cc1noc(-c2ccc(NC(=O)[C@H]3CCCC[C@@H]3C(=O)O)cn2)c1NC(=O)OC(C)c1cccnc1F (stereo partly drawn) [Example 17, (1S,2S)-2-((6-(4-(((1-(2-fluoropyridin-3-yl)ethoxy)carbonyl)amino)-3-methylisoxazol-5-yl)pyridin-3-yl)carbamoyl)cyclohexane-1-carboxylic acid]
[1]; [2]
  IC50: 50 to 250 nM
BSEP
  inhibition at 10 min, 50 μM: ≤ 50%

## Cc1nc(-c2onc(C)c2NC(=O)OC(C)c2cccnc2F)ccc1NC(=O)[C@H]1CCCC[C@@H]1C(=O)O (stereo partly drawn) [Example 19, (1S,2S)-2-((6-(4-(((1-(2-fluoropyridin-3-yl)ethoxy)carbonyl)amino)-3-methylisoxazol-5-yl)-2-methylpyridin-3-yl)carbamoyl)cyclohexane-1-carboxylic acid]
[1]; [2]
  IC50: 50 to 250 nM

## C[C@@H](OC(=O)Nc1ccsc1-c1ccc(NC(=O)[C@H]2CCCC[C@@H]2C(=O)O)cn1)c1ccccc1Cl [Example 21, (1S,2S)-2-((6-(3-((((R)-1-(2-chlorophenyl)ethoxy)carbonyl)amino)thiophen-2-yl)pyridin-3-yl)carbamoyl)cyclohexane-1-carboxylic acid]
[1]; [2]
  IC50: 250 to 600 nM

## Cc1nc(-c2onc(C)c2NC(=O)O[C@H](C)c2nccs2)ccc1NC(=O)[C@H]1CCCC[C@@H]1C(=O)O [Example 22, (1S,2S)-2-((2-methyl-6-(3-methyl-4-((((R)-1-(thiazol-2-yl)ethoxy)carbonyl)amino)isoxazol-5-yl)pyridin-3-yl)carbamoyl)cyclohexane-1-carboxylic acid]
[1]; [2]
  IC50: 250 to 600 nM
BSEP
  inhibition at 10 min, 50 μM: ≤ 50%

## C[C@@H](OC(=O)Nc1c(-c2ccc(NC(=O)[C@H]3CCCC[C@@H]3C(=O)O)cc2)nnn1C)c1ccccc1Cl [Example 23, (1S,2S)-2-((4-(5-((((R)-1-(2-chlorophenyl)ethoxy)carbonyl)amino)-1-methyl-1H-1,2,3-triazol-4-yl)phenyl)carbamoyl)cyclohexane-1-carboxylic acid]
[1]; [2]
  IC50: < 50 nM
BSEP
  inhibition at 10 min, 50 μM: ≤ 50%

## Cc1noc(-c2ccc(NC(=O)[C@H]3CCCC[C@@H]3C(=O)O)cn2)c1NC(=O)O[C@H](C)c1cccnc1Cl [Example 29, (1S,2S)-2-((6-(4-((((R)-1-(2-chloropyridin-3-yl)ethoxy)carbonyl)amino)-3-methylisoxazol-5-yl)pyridin-3-yl)carbamoyl)cyclohexane-1-carboxylic acid]
[1]; [2]
  IC50: 50 to 250 nM
BSEP
  inhibition at 10 min, 50 μM: ≤ 50%

## Cc1noc(-c2ccc(N(C)C(=O)[C@H]3CCCC[C@@H]3C(=O)O)cn2)c1NC(=O)O[C@H](C)c1cccnc1Cl [Example 30, (1S,2S)-2-((6-(4-((((R)-1-(2-chloropyridin-3-yl)ethoxy)carbonyl)amino)-3-methylisoxazol-5-yl)pyridin-3-yl)(methyl)carbamoyl)cyclohexane-1-carboxylic acid]
[1]; [2]
  IC50: 250 to 600 nM
BSEP
  inhibition at 10 min, 50 μM: ≤ 50%

## Cc1noc(-c2ncc(NC(=O)[C@H]3CCCC[C@@H]3C(=O)O)cc2F)c1NC(=O)O[C@H](C)c1ccccc1Cl [Example 31, (1S,2S)-2-((6-(4-((((R)-1-(2-chlorophenyl)ethoxy)carbonyl)amino)-3-methylisoxazol-5-yl)-5-fluoropyridin-3-yl)carbamoyl)cyclohexane-1-carboxylic acid]
[1]; [2]
  IC50: < 50 nM
BSEP
  inhibition at 10 min, 50 μM: ≤ 50%

## Cc1nc(-c2onc(C)c2NC(=O)O[C@H](C)c2cccnc2)ccc1NC(=O)C1CCCCC1C(=O)O (stereo partly drawn) [Example 33, Cis-2-((2-methyl-6-(3-methyl-4-((((R)-1-(pyridin-3-yl)ethoxy)carbonyl)amino)isoxazol-5-yl)pyridin-3-yl)carbamoyl)cyclohexane-1-carboxylic acid]
[1]; [2]
  IC50: 250 to 600 nM

## Cc1noc(-c2ccc(NC(=O)C3CCCCC3C(=O)O)cc2)c1NC(=O)O[C@H](C)c1cccnc1 (stereo partly drawn) [comparative Example B, 2-((4-(3-methyl-4-((((R)-1-(pyridin-3-yl)ethoxy)carbonyl)amino)isoxazol-5-yl)phenyl)carbamoyl)cyclohexane-1-carboxylic acid, reference compound]
[1]; comparative compound, read-out: IC50 on receptor LPA1
  IC50: > 1000 nM
